Source: patent US7820379B2, “Process for high throughput screening of CpG-based immuno-agonist/antagonist” (Coley Pharmaceutical GmbH, priority 2000, dated 2010)

Legend:
Format in all cases: cell-based
[1] = target: T1, hTLR8 (Homo sapiens, UniProt Q9NR97); assay: IL-8 production in 293 cells transiently transfected with hTLR8; conditions: 293 cells transfected with hTLR8; ODN 2 μM, LPS 100 ng/ml
T1 construct: codes for a protein of 1041 amino acids; expressed in transfected cells; host or cells: human 293 fibroblasts (ATCC CRL-1573), transient
T1 sequence (Q9NR97 27-1041): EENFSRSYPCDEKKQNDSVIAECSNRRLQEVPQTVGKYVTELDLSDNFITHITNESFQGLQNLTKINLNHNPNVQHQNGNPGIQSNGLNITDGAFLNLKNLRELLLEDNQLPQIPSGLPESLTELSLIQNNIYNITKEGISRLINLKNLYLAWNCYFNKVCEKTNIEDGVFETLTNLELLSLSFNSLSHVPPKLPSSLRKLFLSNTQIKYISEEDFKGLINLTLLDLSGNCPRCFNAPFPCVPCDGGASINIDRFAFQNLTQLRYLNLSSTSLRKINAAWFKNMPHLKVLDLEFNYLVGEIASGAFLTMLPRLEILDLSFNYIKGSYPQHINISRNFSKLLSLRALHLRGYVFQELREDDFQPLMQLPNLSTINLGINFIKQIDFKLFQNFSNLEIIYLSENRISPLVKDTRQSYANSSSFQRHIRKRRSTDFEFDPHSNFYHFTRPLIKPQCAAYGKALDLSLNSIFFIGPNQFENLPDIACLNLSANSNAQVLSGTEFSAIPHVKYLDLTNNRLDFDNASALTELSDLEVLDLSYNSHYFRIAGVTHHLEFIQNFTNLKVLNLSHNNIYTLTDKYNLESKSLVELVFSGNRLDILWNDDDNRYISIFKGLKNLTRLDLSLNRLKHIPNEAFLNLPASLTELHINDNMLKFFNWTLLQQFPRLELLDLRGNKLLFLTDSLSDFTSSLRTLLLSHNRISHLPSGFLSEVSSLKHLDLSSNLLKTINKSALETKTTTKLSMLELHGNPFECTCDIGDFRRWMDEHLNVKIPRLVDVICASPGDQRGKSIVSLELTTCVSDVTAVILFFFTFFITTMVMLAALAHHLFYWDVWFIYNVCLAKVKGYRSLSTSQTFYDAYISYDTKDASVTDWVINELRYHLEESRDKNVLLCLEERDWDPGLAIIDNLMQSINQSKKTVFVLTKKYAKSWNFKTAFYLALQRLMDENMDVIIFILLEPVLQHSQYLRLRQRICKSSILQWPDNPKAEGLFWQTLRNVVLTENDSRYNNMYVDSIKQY
Method: (§1) The cloned human TLR7 and human TLR8 cDNA (our result) were cloned into the expression vector pcDNA3.1 (−) from Invitrogen using the NotI site. Utilizing a “gain of function” assay, hTLR7 and hTLR8 expression vectors were transiently expressed in human 293 fibroblasts (ATCC, CRL-1573) using the calcium phosphate method. Activation was monitored by IL-8 production after stimulus with CpG-ODN (2006 or 1668, 2 μM) or LPS (100 ng/ml).

[2] = target: T2, hTLR7 (Homo sapiens, UniProt Q9NYK1); assay: IL-8 production in 293 cells transiently transfected with hTLR7; conditions: 293 cells transfected with hTLR7; ODN 2 μM, LPS 100 ng/ml
T2 construct: codes for a protein of 1049 amino acids; expressed in transfected cells; host or cells: human 293 fibroblasts (ATCC CRL-1573), transient
T2 sequence (Q9NYK1 27-1049): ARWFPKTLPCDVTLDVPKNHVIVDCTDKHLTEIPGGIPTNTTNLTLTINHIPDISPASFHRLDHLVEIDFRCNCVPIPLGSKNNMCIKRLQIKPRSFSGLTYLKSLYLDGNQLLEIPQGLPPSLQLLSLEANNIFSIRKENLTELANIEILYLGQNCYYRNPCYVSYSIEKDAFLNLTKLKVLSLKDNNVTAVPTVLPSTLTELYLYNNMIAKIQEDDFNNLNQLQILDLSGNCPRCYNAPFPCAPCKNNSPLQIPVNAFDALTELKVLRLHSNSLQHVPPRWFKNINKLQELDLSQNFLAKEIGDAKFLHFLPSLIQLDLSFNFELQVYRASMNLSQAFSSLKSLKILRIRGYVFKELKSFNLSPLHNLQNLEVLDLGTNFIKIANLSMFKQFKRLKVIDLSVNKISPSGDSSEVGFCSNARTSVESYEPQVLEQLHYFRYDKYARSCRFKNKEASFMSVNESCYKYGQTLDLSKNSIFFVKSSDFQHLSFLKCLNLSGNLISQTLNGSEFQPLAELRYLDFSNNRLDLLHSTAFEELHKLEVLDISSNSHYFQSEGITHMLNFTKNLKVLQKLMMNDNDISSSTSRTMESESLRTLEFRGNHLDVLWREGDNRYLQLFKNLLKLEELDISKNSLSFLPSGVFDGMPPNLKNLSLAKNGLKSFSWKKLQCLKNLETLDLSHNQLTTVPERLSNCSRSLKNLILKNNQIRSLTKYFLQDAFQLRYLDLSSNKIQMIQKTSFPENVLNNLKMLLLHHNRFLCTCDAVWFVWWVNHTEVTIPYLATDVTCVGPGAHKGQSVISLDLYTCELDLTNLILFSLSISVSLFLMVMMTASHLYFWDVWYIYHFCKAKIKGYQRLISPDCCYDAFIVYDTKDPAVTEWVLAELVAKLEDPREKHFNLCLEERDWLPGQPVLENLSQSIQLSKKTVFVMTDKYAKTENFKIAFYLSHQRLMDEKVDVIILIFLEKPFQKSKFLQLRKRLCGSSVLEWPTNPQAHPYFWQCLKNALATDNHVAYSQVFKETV
Method: as §1

[3] = test system: Human peripheral blood mononuclear cells (PBMC); assay: IL-12 production in human PBMC; conditions: ODN titration, after 8 hours
Source text: By iterative examination of the flanking sequences surrounding CG dinucleotides, CpG-motifs have been identified. Paradoxically, or by twist of nature, the human optimal CpG-motif, GTCGTT (SEQ ID NO:66), is different from the murine motif, GACGTT (SEQ ID NO:129). Human peripheral blood mononuclear cells (PBMC) (FIG. 10A) and murine splenocytes (FIG. 10B) were stimulated with ODN 2006 (filled circle, […], SEQ ID NO:112), ODN 2006-GC (open circle), ODN 1668 (filled triangle, […], SEQ ID NO:84) or ODN 1668-GC (open triangle, […], SEQ ID NO:85) at indicated concentrations and IL-12 production was monitored after 8 hours. […] It should also be noted that the Kac (concentration of half-maximal activation) of murine splenocytes for 1668 was greater than human PBMC for 2006 (compare FIG. 10A to FIG. 10B).

| Substance | activation monitored by IL-8 production [1] | activation monitored by IL-8 production [2] | IL-12 production [3] |
| --- | --- | --- | --- |
| lipopolysaccharide [LPS] | None of the stimuli used activated | None of the stimuli used activated |  |
| TCGTCGTTTTGTCGTTTTGTCGTT [ODN 2006] | None of the stimuli used activated | None of the stimuli used activated | induces IL-12 production |
| TCCATGAGCTTCCTGATGCT (listed as DNA, chemistry not fully specified) [ODN 1668-GC] |  |  | essentially negative |
| TCCATGACGTTCCTGATGCT (listed as DNA, chemistry not fully specified) [ODN 1668] | None of the stimuli used activated | None of the stimuli used activated | much less effective |
| TGCTGCTTTTGTGCTTTTGTGCTT (listed as DNA, chemistry not fully specified) [ODN 2006-GC] |  |  | essentially negative |
